In patent publication US8486933B2, “Pyrimidine inhibitors of kinase activity” (AbbVie Inc., priority 2009, dated 2013):

Molecular target: T1, human IGF-1R (Homo sapiens, UniProt P08069)
T1 construct: human IGF-1R, amino acids 954-1367 expressed by baculovirus in Sf21 cells; GST (C); purchased Cell Signaling Technology; host or cells: baculovirus in Sf21 cells
Test: IGF-1R homogenous time-resolved fluorescence (HTRF) in vitro kinase assay
Format: biochemical
Conditions: recombinant GST-tagged human IGF-1R aa 954-1367; ATP 50 μM; 60 minutes at room temperature
Method: IGF-1R kinase activity was assayed by a homogenous time-resolved fluorescence (HTRF) in vitro kinase assay (Mathis, G., HTRF(R) Technology. J Biomol Screen, 1999. 4(6): p. 309-314). Specifically, 10 μL C-terminal GST-tagged, recombinant, human IGF-1R, amino acids 954-1367 expressed by baculovirus in Sf21 cells (Cell Singaling Technology) was mixed with 10 μL inhibitor (various concentrations, 2% final DMSO) and 10 μL of ATP (50 μM final concentration) in reaction buffer (50 mM HEPES, pH 7.5, 10 mM MgCl2, 2 mM MnCl2, 0.1% BSA and 1 mM DTT, 40 μL final volume). The reaction was initiated by addition of 10 μL of biotinylated peptide substrate (Biotin-Ahx-[…], 0.5 μM final concentration) in a black 384-well plate (Packard). […] The quenched reaction was allowed to stand at room temperature for 1 hour and then read in a time-resolved fluorescence detector (Envision, Perkin Elmer) at 615 nm and 665 nm simultaneously. The ratio between the signal of 615 nm and 665 nm was used in the calculation of the IC50.

T1 sequence (P08069 954-1367): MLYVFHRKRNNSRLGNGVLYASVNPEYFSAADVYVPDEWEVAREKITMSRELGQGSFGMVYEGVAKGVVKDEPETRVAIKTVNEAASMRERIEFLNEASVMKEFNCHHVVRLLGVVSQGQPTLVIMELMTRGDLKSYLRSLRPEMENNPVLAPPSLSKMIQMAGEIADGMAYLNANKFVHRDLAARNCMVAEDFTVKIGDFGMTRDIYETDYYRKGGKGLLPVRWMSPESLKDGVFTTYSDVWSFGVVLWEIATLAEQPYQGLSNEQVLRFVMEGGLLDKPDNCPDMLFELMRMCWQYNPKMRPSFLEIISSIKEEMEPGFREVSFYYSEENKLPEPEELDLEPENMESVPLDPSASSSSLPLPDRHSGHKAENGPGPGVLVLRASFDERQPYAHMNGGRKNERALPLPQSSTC

| SMILES | IC50 |
| --- | --- |
| CNC(=O)c1cc2c(cnn2C)cc1Nc1nc(Nc2ccc(N3CCC(N(C)C)CC3)cc2OC)ncc1Br [Example 35, 5-{[5-bromo-2-({4-[4-(dimethylamino)piperidin-1-yl]-2-methoxyphenyl}amino)pyrimidin-4-yl]amino}-N,1-dimethyl-1H-indazole-6-carboxamide] | 10 to 50 nM |
| COc1cc(N2CCC(N3CCN(C)CC3)CC2)ccc1Nc1ncc(Br)c(Nc2cc3cnn(C)c3cc2S(=O)(=O)C(C)C)n1 [Example 28, 5-bromo-N^4-[6-(isopropylsulfonyl)-1-methyl-1H-indazol-5-yl]-N^2-{2-methoxy-4-[4-(4-methylpiperazin-1-yl)piperidin-1-yl]phenyl}pyrimidine-2,4-diamine] | < 10 nM |
| COc1cc(N2CCN(C(C)C)CC2)ccc1Nc1ncc(Br)c(Nc2cc3cnn(C)c3cc2S(C)(=O)=O)n1 [Example 43, 5-bromo-N^2-[4-(4-isopropylpiperazin-1-yl)-2-methoxyphenyl]-N^4-[1-methyl-6-(methylsulfonyl)-1H-indazol-5-yl]pyrimidine-2,4-diamine] | 10 to 50 nM |
| COc1cc(N2CCC(N(C)C)CC2)ccc1Nc1ncc(Br)c(Nc2cccc3[nH]c(C)nc23)n1 [Example 16, 5-bromo-N^2-{4-[4-(dimethylamino)piperidin-1-yl]-2-methoxyphenyl}-N^4-(2-methyl-1H-benzimidazol-4-yl)pyrimidine-2,4-diamine] | 101 to 500 nM |
| COc1cc(N2CCC(N(C)C)CC2)ccc1Nc1ncc(Cl)c(Nc2cc3cn[nH]c3cc2S(=O)(=O)C(C)C)n1 [Example 26, 5-chloro-N^2-{4-[4-(dimethylamino)piperidin-1-yl]-2-methoxyphenyl}-N^4-[6-(isopropylsulfonyl)-1H-indazol-5-yl]pyrimidine-2,4-diamine] | 10 to 50 nM |
| CCS(=O)(=O)c1cc2c(cnn2C)cc1Nc1nc(Nc2ccc(N3CCC(N4CCN(C)CC4)CC3)cc2OC)ncc1Br [Example 46, 5-bromo-N^4-[6-(ethylsulfonyl)-1-methyl-1H-indazol-5-yl]-N^2-{2-methoxy-4-[4-(4-methylpiperazin-1-yl)piperidin-1-yl]phenyl}pyrimidine-2,4-diamine] | < 10 nM |
| CCS(=O)(=O)c1cc2c(cnn2C)cc1Nc1nc(Nc2ccc(N3CCC(N(C)C)CC3)cc2OC)ncc1Br [Example 33, 5-bromo-N^2-{4-[4-(dimethylamino)piperidin-1-yl]-2-methoxyphenyl}-N^4-[6-(ethylsulfonyl)-1-methyl-1H-indazol-5-yl]pyrimidine-2,4-diamine] | < 10 nM |
| CCS(=O)(=O)c1cc2c(cnn2C)cc1Nc1nc(Nc2ccc(N3CCOCC3)cc2OC)ncc1Br [Example 39, 5-bromo-N^4-[6-(ethylsulfonyl)-1-methyl-1H-indazol-5-yl]-N^2-(2-methoxy-4-morpholin-4-ylphenyl)pyrimidine-2,4-diamine] | 10 to 50 nM |
| COc1cc(N2CCC(N(C)C)CC2)ccc1Nc1ncc(Br)c(Nc2cc3cnn(C)c3cc2S(C)(=O)=O)n1 [Example 34, 5-bromo-N^2-{4-[4-(dimethylamino)piperidin-1-yl]-2-methoxyphenyl}-N^4-[1-methyl-6-(methylsulfonyl)-1H-indazol-5-yl]pyrimidine-2,4-diamine] | 10 to 50 nM |

Second part, the compound after the results:

| IC50 | SMILES |
| --- | --- |
| > 500 nM | COc1cc(N2CCC(N(C)C)CC2)ccc1Nc1ncc(Cl)c(Nc2ccc3oc(C)nc3c2)n1 [Example 25, 5-chloro-N^2-{4-[4-(dimethylamino)piperidin-1-yl]-2-methoxyphenyl}-N^4-(2-methyl-1,3-benzoxazol-5-yl)pyrimidine-2,4-diamine] |
| 10 to 50 nM | CCS(=O)(=O)c1cc2[nH]ncc2cc1Nc1nc(Nc2ccc(N3CCOCC3)cc2OC)ncc1Br [Example 32, 5-bromo-N^4-[6-(ethylsulfonyl)-1H-indazol-5-yl]-N^2-(2-methoxy-4-morpholin-4-ylphenyl)pyrimidine-2,4-diamine] |
| 101 to 500 nM | CCN1CCN(c2ccc(Nc3ncc(Br)c(Nc4cccc5oc(C)nc45)n3)cc2)CC1 [Example 15, 5-bromo-N^2-[4-(4-ethylpiperazin-1-yl)phenyl]-N^4-(2-methyl-1,3-benzoxazol-4-yl)pyrimidine-2,4-diamine] |
| > 500 nM | CCN1CCN(c2ccc(Nc3ncc(Br)c(Nc4ccc5[nH]c(Cc6ccccc6)nc5c4)n3)cc2)CC1 [Example 2, N^4-(2-benzyl-1H-benzimidazol-5-yl)-5-bromo-N^2-[4-(4-ethylpiperazin-1-yl)phenyl]pyrimidine-2,4-diamine] |
| > 500 nM | CCN1CCN(c2ccc(Nc3ncc(C)c(Nc4ccc5[nH]ncc5c4)n3)cc2)CC1 [Example 9, N^2-[4-(4-ethylpiperazin-1-yl)phenyl]-N^4-1H-indazol-5-yl-5-methylpyrimidine-2,4-diamine] |
| 51 to 100 nM | COc1cc(N2CCC(N(C)C)CC2)ccc1Nc1ncc(Br)c(Nc2ccc3sc(C)nc3c2)n1 [Example 22, 5-bromo-N^2-{4-[4-(dimethylamino)piperidin-1-yl]-2-methoxyphenyl}-N^4-(2-methyl-1,3-benzothiazol-5-yl)pyrimidine-2,4-diamine] |
| 101 to 500 nM | COc1cc(N2CCC(N(C)C)CC2)ccc1Nc1ncc(Br)c(Nc2cc3cn[nH]c3cc2C)n1 [Example 21, 5-bromo-N^2-{4-[4-(dimethylamino)piperidin-1-yl]-2-methoxyphenyl}-N^4-(6-methyl-1H-indazol-5-yl)pyrimidine-2,4-diamine] |
| 101 to 500 nM | CCN1CCN(c2ccc(Nc3ncc(C(F)(F)F)c(Nc4ccc5[nH]ncc5c4)n3)cc2)CC1 [Example 11, N^2-[4-(4-ethylpiperazin-1-yl)phenyl]-N^4-1H-indazol-5-yl-5-(trifluoromethyl)pyrimidine-2,4-diamine] |
| 10 to 50 nM | COc1cc(N2CCC(N(C)C)CC2)ccc1Nc1ncc(Br)c(Nc2ccc3[nH]ncc3c2)n1 [Example 12, 5-bromo-N^2-{4-[4-(dimethylamino)piperidin-1-yl]-2-methoxyphenyl}-N^4-1H-indazol-5-ylpyrimidine-2,4-diamine] |
| 10 to 50 nM | COc1cc(N2CCC(N3CCN(C)CC3)CC2)ccc1Nc1ncc(Br)c(Nc2ccc3ncccc3c2)n1 [Example 49, 5-bromo-N^2-{2-methoxy-4-[4-(4-methylpiperazin-1-yl)piperidin-1-yl]phenyl}-N^4-quinolin-6-ylpyrimidine-2,4-diamine] |
| 10 to 50 nM | CCS(=O)(=O)c1cc2c(cnn2C)cc1Nc1nc(Nc2ccc(N3CCC(N(C)C)CC3)cc2)ncc1Br [Example 36, 5-bromo-N^2-{4-[4-(dimethylamino)piperidin-1-yl]phenyl}-N^4-[6-(ethylsulfonyl)-1-methyl-1H-indazol-5-yl]pyrimidine-2,4-diamine] |
| 10 to 50 nM | CCS(=O)(=O)c1cc2[nH]ncc2cc1Nc1nc(Nc2ccc(N3CCC(N(C)C)CC3)cc2)ncc1Br [Example 31, 5-bromo-N^2-{4-[4-(dimethylamino)piperidin-1-yl]phenyl}-N^4-[6-(ethylsulfonyl)-1H-indazol-5-yl]pyrimidine-2,4-diamine] |
| 10 to 50 nM | COc1cc(N2CCC(N3CCN(C)CC3)CC2)ccc1Nc1ncc(Br)c(Nc2ccc3cccnc3c2)n1 [Example 50, 5-bromo-N^2-{2-methoxy-4-[4-(4-methylpiperazin-1-yl)piperidin-1-yl]phenyl}-N^4-quinolin-7-ylpyrimidine-2,4-diamine] |
| 101 to 500 nM | CCN1CCN(c2ccc(Nc3ncc(Br)c(Nc4ccc5scnc5c4)n3)cc2)CC1 [Example 14, N^4-1,3-benzothiazol-5-yl-5-bromo-N^2-[4-(4-ethylpiperazin-1-yl)phenyl]pyrimidine-2,4-diamine] |
